# Source: PMC9007350, “Aurintricarboxylic acid is a canonical disruptor of the TAZ-TEAD transcriptional complex” (PLoS ONE, 2022)
# Tested on: TC/TEAD transcriptional profile in TC-expressing NIH3T3 cells
# Experiment: Bulk RNA-Seq, differential gene expression and GSEA (TC ATA v. TC DMSO)
# Format: cell-based, murine
# Method: NIH3T3 and HEK293 cells were obtained from the American Type Tissue Collection (ATCC, Manassas, VA) and cultured in DMEM containing 10% fetal bovine serum and penicillin/streptomycin. A TEAD dual luciferase reporter assay was performed as previously described. Cells were treated with vehicle control or ATA (10 μM) for 48 h before measuring the luciferase activity or processing the samples for RNA extraction. Each experiment was repeated at least 2-3 times. NIH3T3 cells were used. The extracted RNA (RNeasy Mini, Qiagen) from treated cells was either used for qPCR measurements or sent for bulk RNA-Seq. Sequencing runs were performed on an Illumina HiSeq 4000 sequencer (Genewiz). Subsequent bioinformatics analysis was performed in the Galaxy Project platform. Paired end reads were aligned to the murine genome ([…]2 [27]. Raw count files were generated with featureCounts using a corresponding GTF reference. Differential gene expression analysis was performed with DESeq2 [29]. Transcripts were considered to be differentially expressed if the false discovery rate < 0.05 and Log2FC > 2. When performing differential gene expression for GSEA analysis, the Limma package was used (<5 CPM filtering) with t-scores used for rank statistics. GSEA plots and statistics were generated with FGSEA with custom gene sets. Raw sequencing reads and processed files have been deposited in the GEO repository (data will be uploaded upon manuscript acceptance). The Universal Probe Library probes (Roche) and the associated primer sequences for the qPCR targets are listed below: […]
smiles,measurement,setting,value
"O=C(O)C1=CC(=C(c2ccc(O)c(C(=O)O)c2)c2ccc(O)c(C(=O)O)c2)C=CC1=O [ATA, aurintricarboxylic acid]","Log2 Fold Change, Pkig (ENSMUSG00000035268)",,0.2955
same,GSEA normalized enrichment score (NES) for the 248 TC-upregulated genes,"ATA-treated vs vehicle, TC-expressing NIH3T3, 10 μM, 48 h, P = 0.0036",-2.027
same,"Log2 Fold Change, Cep83os (ENSMUSG00000097164)","TC ATA v. TC DMSO, RNA-Seq differential gene expression, gene Cep83os",0.5451
same,"Log2 Fold Change, P3h1 (ENSMUSG00000028641)","TC ATA v. TC DMSO, RNA-Seq differential gene expression, gene P3h1",0.1936
same,"Log2 Fold Change, Per1 (ENSMUSG00000020893)","TC ATA v. TC DMSO, RNA-Seq differential gene expression, gene Per1",0.3113
same,"Log2 Fold Change, Spn (ENSMUSG00000051457)","TC ATA v. TC DMSO, RNA-Seq differential gene expression, gene Spn",0.7001
same,"Log2 Fold Change, Wnt9a (ENSMUSG00000000126)","TC ATA v. TC DMSO, RNA-Seq differential gene expression, gene Wnt9a",-0.2847
same,Log2 Fold Change,"gene AW551984, TC ATA v. TC DMSO",0.7046
same,Log2 Fold Change,"gene Abcd2, TC ATA v. TC DMSO",0.775
same,Log2 Fold Change,"gene Adgra2, TC ATA v. TC DMSO",-0.4459
same,Log2 Fold Change,"gene Adgrl2, TC ATA v. TC DMSO",0.4171
same,Log2 Fold Change,"gene Angpt2, TC ATA v. TC DMSO",1.066
same,Log2 Fold Change,"gene Angptl2, TC ATA v. TC DMSO",-0.3301
same,Log2 Fold Change,"gene Asb4, TC ATA v. TC DMSO",0.7498
same,Log2 Fold Change,"gene Asic1, TC ATA v. TC DMSO",0.4827
same,Log2 Fold Change,"gene Atg9b, TC ATA v. TC DMSO",-1.183
same,Log2 Fold Change,"gene Atp1a2, TC ATA v. TC DMSO",0.776
same,Log2 Fold Change,"gene Atp1b1, TC ATA v. TC DMSO",0.4541
same,Log2 Fold Change,"gene Cacng7, TC ATA v. TC DMSO",0.4229
same,Log2 Fold Change,"gene Cbr2, TC ATA v. TC DMSO",1.297
same,Log2 Fold Change,"gene Ccdc80, TC ATA v. TC DMSO",0.4999
same,Log2 Fold Change,"gene Cd24a, TC ATA v. TC DMSO",0.8435
same,Log2 Fold Change,"gene Cd81, TC ATA v. TC DMSO",0.3883
same,Log2 Fold Change,"gene Chrnb1, TC ATA v. TC DMSO",-0.628
same,Log2 Fold Change,"gene Ckmt2, TC ATA v. TC DMSO",0.9415
same,Log2 Fold Change,"gene Clu, TC ATA v. TC DMSO",0.6162
same,Log2 Fold Change,"gene Col4a6, TC ATA v. TC DMSO",0.4089
same,Log2 Fold Change,"gene Coq8a, TC ATA v. TC DMSO",0.862
same,Log2 Fold Change,"gene Creg1, TC ATA v. TC DMSO",0.425
same,Log2 Fold Change,"gene Csrp2, TC ATA v. TC DMSO",-0.43
same,Log2 Fold Change,"gene Cth, TC ATA v. TC DMSO",-0.3812
same,Log2 Fold Change,"gene Dhrs3, TC ATA v. TC DMSO",0.4703
same,Log2 Fold Change,"gene Dlk1, TC ATA v. TC DMSO",0.4509
same,Log2 Fold Change,"gene Dmpk, TC ATA v. TC DMSO",0.6567
same,Log2 Fold Change,"gene Dpep1, TC ATA v. TC DMSO",0.7304
same,Log2 Fold Change,"gene Epha4, TC ATA v. TC DMSO",0.8248
same,Log2 Fold Change,"gene Ercc1, TC ATA v. TC DMSO",-0.7217
same,Log2 Fold Change,"gene Errfi1, TC ATA v. TC DMSO",-0.4719
same,Log2 Fold Change,"gene Fabp3, TC ATA v. TC DMSO",1.14
same,Log2 Fold Change,"gene Fam13c, TC ATA v. TC DMSO",0.6886
same,Log2 Fold Change,"gene Fam110c, TC ATA v. TC DMSO",-0.7995
same,Log2 Fold Change,"gene Fam114a1, TC ATA v. TC DMSO",0.3512
same,Log2 Fold Change,"gene Fgf7, TC ATA v. TC DMSO",0.4417
same,Log2 Fold Change,"gene Fn1, TC ATA v. TC DMSO",0.5505
same,Log2 Fold Change,"gene Galnt15, TC ATA v. TC DMSO",1.35
same,Log2 Fold Change,"gene Gas1, TC ATA v. TC DMSO",0.4145
same,Log2 Fold Change,"gene Ggct, TC ATA v. TC DMSO",-0.7955
same,Log2 Fold Change,"gene Gm49774, TC ATA v. TC DMSO",-0.6084
same,Log2 Fold Change,"gene Gse1, TC ATA v. TC DMSO",0.7002
same,Log2 Fold Change,"gene Gsta3, TC ATA v. TC DMSO",0.7075
same,Log2 Fold Change,"gene Gstm1, TC ATA v. TC DMSO",0.6142
same,Log2 Fold Change,"gene Hivep3, TC ATA v. TC DMSO",0.5196
same,Log2 Fold Change,"gene Hmga1b, TC ATA v. TC DMSO",-0.4737
same,Log2 Fold Change,"gene Htra1, TC ATA v. TC DMSO",-0.7041
same,Log2 Fold Change,"gene Id1, TC ATA v. TC DMSO",1.021
same,Log2 Fold Change,"gene Id3, TC ATA v. TC DMSO",0.8267
same,Log2 Fold Change,"gene Igfbp4, TC ATA v. TC DMSO",0.6017
same,Log2 Fold Change,"gene Il1r1, TC ATA v. TC DMSO",0.3663
same,Log2 Fold Change,"gene Il11ra1, TC ATA v. TC DMSO",0.412
same,Log2 Fold Change,"gene Il17rd, TC ATA v. TC DMSO",0.6209
same,Log2 Fold Change,"gene Ipo7, TC ATA v. TC DMSO",-0.2967
same,Log2 Fold Change,"gene Lrig1, TC ATA v. TC DMSO",-0.4157
same,Log2 Fold Change,"gene Ltbp2, TC ATA v. TC DMSO",-0.4917
same,Log2 Fold Change,"gene Ly6a, TC ATA v. TC DMSO",1.151
same,Log2 Fold Change,"gene Mgst1, TC ATA v. TC DMSO",1.029
same,Log2 Fold Change,"gene Mocs1, TC ATA v. TC DMSO",0.3748
same,Log2 Fold Change,"gene Mrgprf, TC ATA v. TC DMSO",0.6309
same,Log2 Fold Change,"gene Mybpc1, TC ATA v. TC DMSO",0.8979
same,Log2 Fold Change,"gene Myl3, TC ATA v. TC DMSO",1.696
same,Log2 Fold Change,"gene Myoz2, TC ATA v. TC DMSO",1.5589
same,Log2 Fold Change,"gene Naaa, TC ATA v. TC DMSO",0.4836
same,Log2 Fold Change,"gene Nefm, TC ATA v. TC DMSO",-1.532
same,Log2 Fold Change,"gene Nes, TC ATA v. TC DMSO",-0.5782
same,Log2 Fold Change,"gene Nipal1, TC ATA v. TC DMSO",-0.5524
same,Log2 Fold Change,"gene Nqo1, TC ATA v. TC DMSO",0.5252
same,Log2 Fold Change,"gene Nrcam, TC ATA v. TC DMSO",-1.361
same,Log2 Fold Change,"gene Nrn1, TC ATA v. TC DMSO",0.4579
same,Log2 Fold Change,"gene Nrxn2, TC ATA v. TC DMSO",0.7098
same,Log2 Fold Change,"gene Odc1, TC ATA v. TC DMSO",-0.4352
same,Log2 Fold Change,"gene Optn, TC ATA v. TC DMSO",0.5559
same,Log2 Fold Change,"gene Osmr, TC ATA v. TC DMSO",0.5327
same,Log2 Fold Change,"gene Pcx, TC ATA v. TC DMSO",0.5741
same,Log2 Fold Change,"gene Pdgfrb, TC ATA v. TC DMSO",0.5085
same,Log2 Fold Change,"gene Pdgfrl, TC ATA v. TC DMSO",0.4243
same,Log2 Fold Change,"gene Podnl1, TC ATA v. TC DMSO",-0.4267
same,Log2 Fold Change,"gene Prrx2, TC ATA v. TC DMSO",0.8257
same,Log2 Fold Change,"gene Pvr, TC ATA v. TC DMSO",-0.3787
same,Log2 Fold Change,"gene Rcan2, TC ATA v. TC DMSO",0.6454
same,Log2 Fold Change,"gene Rgs4, TC ATA v. TC DMSO",0.757
same,Log2 Fold Change,"gene Rnf150, TC ATA v. TC DMSO",0.5435
same,Log2 Fold Change,"gene Sema7a, TC ATA v. TC DMSO",-1.826
same,Log2 Fold Change,"gene Serpinb9, TC ATA v. TC DMSO",0.5861
same,Log2 Fold Change,"gene Serpine2, TC ATA v. TC DMSO",0.9636
same,Log2 Fold Change,"gene Setbp1, TC ATA v. TC DMSO",0.5242
same,Log2 Fold Change,"gene Slc45a3, TC ATA v. TC DMSO",0.6918
same,Log2 Fold Change,"gene Smoc2, TC ATA v. TC DMSO",0.9475
same,Log2 Fold Change,"gene Ssbp2, TC ATA v. TC DMSO",0.4963
same,Log2 Fold Change,"gene Stard10, TC ATA v. TC DMSO",0.7192
same,Log2 Fold Change,"gene Sulf2, TC ATA v. TC DMSO",0.5447
same,Log2 Fold Change,"gene Thbs3, TC ATA v. TC DMSO",0.6372
same,Log2 Fold Change,"gene Tmem119, TC ATA v. TC DMSO",0.9507
same,Log2 Fold Change,"gene Tnnt1, TC ATA v. TC DMSO",1.595
same,Log2 Fold Change,"gene Tnxb, TC ATA v. TC DMSO",0.5484
same,Log2 Fold Change,"gene Tpm2, TC ATA v. TC DMSO",0.3178
same,Log2 Fold Change,"gene Trim30a, TC ATA v. TC DMSO",1.18
same,Log2 Fold Change,"gene Trp53inp2, TC ATA v. TC DMSO",0.6286
same,Log2 Fold Change,"gene Zfp503, TC ATA v. TC DMSO",0.4797
